Assay results reported in patent publication US8101653B2, “Therapeutic compositions” (BTG International Limited, priority 1997, dated 2012).

How the values were obtained:
[1] = liquid diet supplemented with 47% of its caloric content; cited from earlier work
[2] = tested on: liver cytosolic [NAD]/[NADH]; settings: after feeding/administration; 1,3 butandiol decrease from 1500; cited from earlier work
[3] = cited from earlier work
whole brain GABA levels = assay: Effect of increased blood D-β-hydroxybutyrate on whole brain GABA levels; type: in vivo, rat; settings: 120 minutes after administration as in Example 3; t=0 level 191
Protocol: To assess the effect of D-β-hydroxybutyrate on whole brain GABA levels, and thus provide an indication of antiepileptic effect of ketone body or precursor treatment aimed at increasing blood ketone body levels, whole rat brain was frozen at set times after administration of D-β-hydroxybutyrate as described in Example 3, GBA was assayed using standard HPLC technique and related to protein content using standard protein assay.

[4] = tested on: primary hippocampal cultures; assay: Effect of D-β-hydroxybutyrate on β-amyloid toxicity to hippocampal cells in vitro (microisland cultures); type: cell-based, Wistar; settings: for neuronal cell number per microisland: increase from a mean of 30
Protocol: The serum free medium used from 0 to day 4 contained Neurobasal medium with B27 supplement diluted 50 fold (Life Technology, Gaithersburg, Md.) to which was added: 0.5 mM L-glutamine, 25 μM Na L-glutamate, 100 U/ml penicillin and 100 μg/ml streptomycin. After day 4, DMEM/F12 medium containing 5 μM insulin, 30 nM 1-thyroxine, 20 nM progesterone, 30 nM Na selenite 100 U/ml penicillin and 100 μg/ml streptomycin were used.
The primary hippocampal cultures were removed from Wistar embryos on day 18 and dispersed by gentle aggitation in a pipette. The suspension was centrifuge at 1,500×g for 10 min and the supernatant discarded. New media was make 0.4-0.5×10^6 cells/ml. Ten μl of this suspension was pipetted into the center of poly D-lysine coated culture wells and the plates incubated at 38° C. for 4 hrs and then 400 μl of fresh Neurobasal media was added. After 2 days of incubation, half of the media was exchanged for fresh media and the incubation continued for 2 more days. After day 4, the medium was changed with DMEM/F12 medium containing 5 μM insulin, 30 nM 1-thyroxine, 20 nM progestrone, 30 nM Na selenite 100 U/ml penicillin and 100 μg/ml streptomycin. […] These media were exchanged 2 days later (day 8) and the cells were fixed on day 10 and stained with anti MAP2 (Boehringer Manheim, Indianapolis, Id.) to visual neurons and vimentin and GFAP (Boehringer) to visualize glial cells.

[5] = room temperature, unesterified state; cited from earlier work
[6] = tested on: cerebral circulation and regional vasomotor reflexes; settings: in vivo; cited from earlier work
[7] = cited from earlier work; remark: listed apart in the source
[8] = Rats fed triolide in 'Hob-Nob' biscuit, tolerability over two weeks; type: in vivo; settings: two rats fed approximately 1.5 g triolide each in biscuit, after two weeks
[9] = Oral administration of triolide in yoghurt to rats, plasma D-β-hydroxybutyrate and tolerability; type: in vivo, Wistar rats; settings: over at least 3 hours
Protocol: The ability of orally administered triolide to raise blood ketone levels was investigated as follows. The day before the experiment commenced, 12 Wistar rats weighing 316±10 g were placed in separate cages. They had no access to food for 15 hours prior to presentation with triolide containing compositions, but water was provided ad libitum.
On the morning of the experiment 0.64 g of triolide was mixed with 5 g Co-op brand Black Cherry yoghurt in separate feeding bowls for […] of the rats. The memaining 3 rats were given 5 g of the yoghurt without the triolide as controls. The yoghurt containing bowls were placed in the cages and the rats timed while they ate. Two of the three control rats ate all the yoghurt and four of the six triolide yoghurt rats ate approximately half the provided amount. The remaining […] rats slept.
Control rats (n=2) were killed at 60 and 180 minutes after ingestion of yoghurt while triolide fed rats were killed at 80, 140, 150 and 155 minutes. Blood samples were taken for assay of D-β-hydroxybutyrate. […] Blood levels of (R)-3-hydroxyburyrate were measured using a […] assay of Anal. Biochem (1983) 131, p 478-482, 1.0 ml of a solution made up from 2-amino-2-methyl-1-propanol (100 mM pH 9.9, 0.094 g/10 ml), NAD^− (30 mM. 0.199 g/10 ml) and EDTA (4 mM, 0.015 g/10 ml) was added to each of a number of cuvettes and 4 μl sample or D-β-hydroxybutyrate control.

septal cells = settings: 1 μm Aβ142 for 24 hours; cited from earlier work
[10] = presence of D-β-hydroxybutyrate, whether β142 was present or not
[11] = intravenous infusion, normal human subjects and patients

Compound: CC(O)CCO (racemic) [racemic 1,3 butandiol, 1,3 butandiol]
- blood D-β hydroxybutyrate concentration [1]: 0.98 mM
- blood acetoacetate concentration [1]: 0.33 mM
- rise of blood ketone concentration [1]: about 10 fold
- liver cytosolic [NAD]/[NADH] [2]: 1000

Compound: C[C@@H](O)CC(=O)O [D-β-hydroxybutyrate, (R)-3-hydroxybutyric acid]
- pKa [3]: 4.4
- whole brain GABA levels (whole brain GABA levels): 466 pmoles/μg protein
- neuronal cell number per microisland ([4]; D-β-hydroxybutyrate added to cultures containing amyloid β142): 70 cells per microisland
- neuronal cell number per microisland ([4]; Na D-β-hydroxybutyrate 8 mM, no amyloid): 70 cells per microisland
- length of axons [4, 10]: increased
- number of dendritic outgrowths [4, 10]: increased

Compound: CC(=O)CC(=O)O [acetoacetate]
- half time of spontaneous decarboxylation to acetone [5]: about 30 days

Compound: CCO [ethanol]
- liver cytosolic [NAD]/[NADH] [2]: around 200

Compound: CC(O)CC(=O)[O-].[Na+] (centres unmarked) [sodium hydroxybutyrate]
- increase of cerebral circulation and regional vasomotor reflexes [6]: up to 40%

Compound: C[C@@H](O)CC(=O)[O-].[Na+] [sodium salts of D-β-hydroxybutyrate]
- toxicity ([7]; human, in vivo, iv): non-toxic
- effect on glucose, free fatty acids and glycerol concentration [7, 11]: capable of decreasing
- effect on leucine oxidation [7, 11]: ineffective

Compound: C[C@@H]1CC(=O)O[C@H](C)CC(=O)O[C@H](C)CC(=O)O1 [triolide, (R,R,R)-4,8,12-trimethyl-1,5,9-trioxadodeca-2,6,10-trione]
- ill effects [8]: no ill effects
- ill effects from ingestion [9]: no ill effects

Compound: amyloid β142: amyloid β peptide (Sigma), toxic to hippocampal neurons
- activity of choline acetyl transferase (septal cells): no decrease
- decrease in acetyl choline production (septal cells): over five fold
